According to US5108916A, “Process for stereoselectively hydrolyzing, transesterifying or esterifying with immobilized isozyme of lipase from Candida rugosa” (priority 1989, dated 1992):
“And” between values parts separate entries of the source, which are not always exact repeats. Identical values can stand only once. Like-named read-outs stand apart in the source and are kept apart here.

System: CSC-2
Experiment: Effect of additives and solvents on hydrolysis of ketoprofen monoglyceride by CSC-2
Assay type: biochemical, Candida rugosa
Details: for % ee: as E102; for Isolated % ee (S-Acid): extraction procedure I for oleic acid and corn oil, II for the others; for % ee S-acid: 23 hr, 200 ul
Description: Hydrolysis of ketoprofen-monoglyceride (50mg) was carried out in various DMF-100mM (NH4)H2 PO4 buffer (pH 5.5) mixtures. In each flask a solution of ketoprofen monoglyceride (50mg) in DMF (200ul) was added. DMF was added followed by 100mM (NH4)H2 PO4 buffer. […] After 22 hours, 2%, 5%, and 10% DMF samples were acidified, extracted with CHCl3 (2×10ml) and analyzed. The other samples were analyzed directly as in Example 18. The acid produced decreases with increasing amount of DMF.
Small amounts of DMF were added to the reaction mixture to increase the solubility of KPG. In all cases 100mM ammonium phosphate buffer (pH 5.5) was used and 2% (v/v) detergents were added and the total volume was 10ml.
The buffer reaction (entry #2 in the table) contained enzyme in buffer (2 ml) and the buffer only (entry #1 in the table) reaction contained no enzyme.
The presence of a surfactant like Tween increases the solubility o lipophilic compounds in water. […] Tween 80 was added to make 1% and 2% solution (v/v). Bovine serum albumin (BSA) (10mg) was added to each of two flasks. A solution of 50mg of ketoprofen monoglyceride in 200ul DMF was added to each. After 20 hours at 250 rpm and 35° C. the reaction mixtures were acidified, extracted and analyzed by the usual HPLC procedure as in Example 18.
Various surfactants were used at 2% of the reaction volume to determine their effect on the enzymatic reaction involving the conversion of ketoprofen monoglyceride (KPG) to ketoprofen (KP). […] Flasks were covered with parafilm and incubated in a 35° C. water bath at 250 rpm, typically overnight. Reactions were stopped by acidification, extracted with CHCl3 (2×10 ml). The %acid and %ee were determined by the method of Example 18. It is to be noted that Hydrophile-Lipophile Balance (HLB) values have no apparent bearing on the ability of the surfactant to enhance the conversion of KPG to KP.
75 mg of KPG (in the absence of DMF) was individually weighed into 50 ml Erlenmeyer flasks. […] 9 ml of 100 mM (NH4)H2 PO4, pH 5.5 buffer was added, and the flasks were placed into a 35° C., 250 rpm water bath incubator for 20 hours. The reactions were acidified, extracted with CHCl3 and examined by HPLC as in Example 18. The %ee was determined as per Example 18.
Various amounts of oleic acid or its esters were added, and the reactions stopped at the times indicated, acidified, extracted with CHCl3 and analyzed as in Example 18.
An experiment was performed as in Example 41, but using 100, 200 and 500 ul of olive oil to determine if it would enhance the rate of conversion of KPG to KP. […] After 20 hours, all reactions were acidified, extracted with CHCl3 and analyzed by HPLC as in Example 18. The results are given below:
50 mg of KPG was weighed into Erlenmeyer flasks. […] Flasks were incubated at 35° C., 250 rpm for 23 hours. The reactions were stopped by acidification, extracted with CHCl3, and analyzed by HPLC as in Example 18. The additive is listed along with its percentage composition of glycerides of oleic acid.
To determine the problems associated with having oleic acid or oleate. esters in the reaction media, the following experiment was performed. […] Flasks were placed in a 35° C. incubator at 250 rpm, and the reactions were sampled by taking 200 ul aliquots at various time points. These aliquots were analyzed by HPLC (ODS-3 RAC column, CH3 OH: 10 mM (NH4)H2 PO4 (60:40) eluant, 4 ml/min, 254 nm detection) to determine the course of reaction. When approximately 40% acid was produced, the reactions were stopped by placing the flasks in the -70° C. freezer. Two extraction procedures were utilized to determine the best method of isolating S-Ketoprofen free of oleic acid. The first (listed as Extraction Procedure I in the following table) involved first making the solution basic (pH 10) with NaOH, then extracting with hexane, then CHCl3.

[1] = surfactant 2% of reaction volume, 200 ul DMF, enzyme alone = 100
[2] = 200 ul DMF, b1067-b1069 18 hr, b1070-b1084 23 hr, amounts: 200 ul except tributyrin, dilinolein, trilinoein 100 ul, monostearin, distearin 25 ul, tristearin 28 ul, 0 = CSC-2 alone
[3] = 5 g KPG, 50 mg CSC-2, 5 grams additive
[4] = additive 100 ul, 75 mg KPG, no DMF, 20 hours
[5] = additive 200 ul, 75 mg KPG, 20 hours
[6] = additive 500 ul, 75 mg KPG, 20 hours
[7] = solvent/buffer 1:1 two phase, 16 hour reactions
[8] = 18 hr with 100 ul (b930-b936), 23 hr with 200 ul (b937-b944), None = CSC-2 alone
[9] = solvent/buffer 1:1 two phase, 26 hours, buffer = 100

For `ClC(Cl)Cl` [Chloroform], the “Relative Rate” value (pH 5.5, 960 min) was 0.

In the case of POE-20 oleyl ether [Brij 99], the “Relative Rate” value [1] was 15.

For `CCCCC/C=C\C/C=C\CCCCCCCC(=O)OCC(O)COC(=O)CCCCCCC/C=C\C/C=C\CCCCC` [dilinolein], the “% Acid” value [2] was 20%.

In the case of `CC(=O)OCC(COC(C)=O)OC(C)=O` [Triacetin], the “% Acid” value [2] was 12%.

In the case of Tween 60, the “Relative Rate” value [1] was 23.

In the case of Span 85, the “Final % Acid” value [3] was 28.9%, the Rate [3] was 0.87 µmol/h/mg and the “% Acid” value [4] was 28%. The “S-acid (% ee)” value (additive 200 ul) was 96, the “% Acid” value [5] was 33% and the “% Acid” value [6] was 34%. For the same compound, the “% ee” value was 93% and 96% and 95% and 97%, the “Isolated % ee (S-Acid)” value was 95.1% and the “Relative Rate” value [1] was 181.

With `CCCCO` [n-Butanol] the “Relative Rate” value [7] was 0.

In the case of `CCCCCCCCCCCCCCCCCC(=O)OCC(COC(=O)CCCCCCCCCCCCCCCCC)OC(=O)CCCCCCCCCCCCCCCCC` [tristearin], the “% Acid” value [2] was 25%.

For `CCCCCCCC/C=C\CCCCCCCC(=O)O` [oleic acid], the “Final % Acid” value [3] was 39%, the Rate [3] was 1.2 µmol/h/mg and the “% Acid” value [8] was 47%. For the same compound, the “% ee S-acid” value (None = CSC-2 alone) was 96%, the Rate (as E158) was 3 and the “Isolated % ee (S-Acid)” value was 88%.

With Tween 20 the “Relative Rate” value [1] was 39.

With `OCc1ccccc1` [Benzyl alcohol] the “Relative Rate” value [7] was 0.

In the case of Span 20, the “Relative Rate” value [1] was 75.

For `CCCCCCCC/C=C\CCCCCCCC(=O)OC` [oleic acid methyl ester], the “% Acid” value [8] was 51%, the “% ee S-acid” value (None = CSC-2 alone) was 97% and the Rate (as E158) was 3.

For `CCCCCCCCCCCCCCCCCC(=O)OCC(O)COC(=O)CCCCCCCCCCCCCCCCC` [distearin], the “% Acid” value [2] was 30%.

Span 80 was tested, and the “% Acid” value [4] was 27%, the “S-acid (% ee)” value (additive 200 ul) was 97 and the “% Acid” value [5] was 28%. For the same compound, the “% Acid” value [6] was 27% and the “Relative Rate” value [1] was 160.

`CCCCC/C=C\C/C=C\CCCCCCCC(=O)OC` [linoleic acid methyl ester] was tested, and the “% Acid” value [2] was 34%.

For `CC/C=C\C/C=C\C/C=C\CCCCCCCC(=O)O` [linolenic acid], the “% Acid” value [2] was 13%.

In the case of Tween 65, the “Relative Rate” value [1] was 39.

In the case of Tween 61, the “Relative Rate” value [1] was 92.

In the case of `CCCCCCCCCCCCCCCCCC(=O)OCC(O)CO` (stereo not drawn) [monostearin], the “% Acid” value [2] was 31%.

For Span 40, the “Relative Rate” value [1] was 99.

In the case of `CCCCCCO` [n-Hexanol], the “Relative Rate” value [7] was 0.

With `CCCCC/C=C\C/C=C\CCCCCCCC(=O)OCC` [Linoleic acid ethyl ester] the “% Acid” value [2] was 26%.

In the case of `CCCCCCCC/C=C\CCCCCCCC(=O)OCC(COC(=O)CCCCCCC/C=C\CCCCCCCC)OC(=O)CCCCCCC/C=C\CCCCCCCC` [triolein], the “% Acid” value [8] was 38% and the Rate (as E158) was 3.

For `CC(C)OC(C)C` [Isopropyl ether], the “EE of S-acid” value (solvent/buffer 1:1 two phase, 26 hours) was 69% and the “Relative Rate” value [9] was 53.

For `CCOC(C)=O` [Ethyl acetate], the “Relative Rate” value [7] was 0.

In the case of `CCCCCCCC/C=C\CCCCCCCC(=O)OCC` [oleic acid ethyl ester], the “% Acid” value [8] was 52%, the “% ee S-acid” value (None = CSC-2 alone) was 96% and the Rate (as E158) was 4.

For `ClCCCl` [Ethylene dichloride], the “Relative Rate” value [7] was 0.

In the case of `O=C1CCCCC1` [Cyclohexanone], the “Relative Rate” value [7] was 0.

In the case of POE-10 stearyl ether [Brij 76], the “Relative Rate” value [1] was 18.

With Tween 85 the “Relative Rate” value [1] was 27.

In the case of POE-10 oleyl ether [Brij 96], the “Relative Rate” value [1] was 27.

In the case of sorbitan sesquioleate [Arlacel 83], the “% Acid” value [4] was 30%, the “S-acid (% ee)” value (additive 200 ul) was 99 and the “% Acid” value [5] was 30%. For the same compound, the “% Acid” value [6] was 29% and the “Relative Rate” value [1] was 172.

With `ClCCl` [Dichloromethane] the “Relative Rate” value [7] was 0.

Tween 80 was tested, and the “Final % Acid” value [3] was 34.9%, the Rate [3] was 0.46 µmol/h/mg and the “Relative Rate” value (20 hours, b844=no Tween no BSA, b846=1% Tween and BSA, b848=2% Tween and BSA, b850=2% Tween no BSA, 1200 min) was 114 and 142 and 118. For the same compound, the “% Acid” value [4] was 12%, the “S-acid (% ee)” value (additive 200 ul) was 96 and the “% Acid” value [5] was 22%. The “% Acid” value [6] was 18%, the “% ee” value was 96% and 92% and 86% and 97% and 93% and the “ee of S-acid” value (as E149) was 95% and 96%. For the same compound, the “Isolated % ee (S-Acid)” value was 94.3% and the “Relative Rate” value [1] was 136.

In the case of POE-2 oleyl ether [Brij 92], the “Relative Rate” value [1] was 27.

In the case of POE-23 lauryl ether [Brij 35], the “Relative Rate” value [1] was 26.

In the case of `CCC(=O)CC` [3-Pentanone], the “Relative Rate” value [7] was 0.

With `CCOCC` [Ethyl ether] the “Relative Rate” value (pH 5.5, 960 min) was 0.

In the case of POE-2 stearyl ether [Brij 72], the “Relative Rate” value [1] was 106.

`CCc1ccccc1` [Ethylbenzene] was tested, and the “EE of S-acid” value was 48% and the “Relative Rate” value [9] was 18.

For `CCCCCCCC/C=C\CCCCCCCC(=O)OCC(O)CO` (stereo not drawn) [Monolein], the “% Acid” value [8] was 43% and the Rate (as E158) was 4.

Span 60 was tested, and the “Relative Rate” value [1] was 108.

For Tween 40, the “Relative Rate” value [1] was 29.

`CCCCC/C=C\C/C=C\CCCCCCCC(=O)O` [linoleic acid] was tested, and the “% Acid” value [2] was 21%.

For Diolein, the “% Acid” value [8] was 42% and the Rate (as E158) was 4.

With `CCCC(=O)OCC(COC(=O)CCC)OC(=O)CCC` [tributyrin] the “% Acid” value [2] was 3%.

In the case of `CCCCC/C=C\C/C=C\CCCCCCCC(=O)OCC(COC(=O)CCCCCCC/C=C\C/C=C\CCCCC)OC(=O)CCCCCCC/C=C\C/C=C\CCCCC` [trilinoein], the “% Acid” value [2] was 20%.

In the case of POE-20 stearyl ether [Brij 78], the “Relative Rate” value [1] was 14.

With `CCCCCCCCO` [n-Octanol] the “Relative Rate” value [7] was 0.
